Measured values as given in patent EP1137632B1, “THIOUREA INHIBITORS OF HERPES VIRUSES” (Wyeth, priority 1998, dated 2000).
Values after ≈ are worked out from the molar mass of the structure shown.

How the values were obtained:
[1] = system: HCMV recombinant mutant virus; assay: microbe, parasite or virus in culture; format: cell-based, human cytomegalovirus; conditions: Human betaherpesvirus 5, read-out: IC50 (ug/ml) HCMV
Description: Microtiter plate assay. Ninety-six well plate cultures of human foreskin fibroblasts are infected in the presence of inhibitor compound with a HCMV recombinant mutant virus whose genome contains the prokaryotic beta-glucuronidase gene (Jefferson, R. A., S. M. Burgess, and D. Hirsh. 1986. Beta-glucuronidase from Escherichia coli as a gene fusion marker. Proc. Natl. Acad. Sci. USA 83:8447-8451) whose expression is controlled by a viral promoter. An example of such a virus is RV145 (Jones, T. R., V. P. Muzithras, and Y. Gluzman. 1991. Replacement mutagenesis of the human cytomegalovirus genome: US10 and US11 gene products are nonessential. J. Virol. 65:5860-5872). Since it is under the control of a viral promoter, beta-glucuronidase expression is an indirect indicator of growth and replication of HCMV in this assay. At 96 hours post-infection, the infected cell lysates are prepared (using 50mM sodium phosphate [pH7.0] containing 0.1 % Triton X-100 and 0.1% sarkosyl) and assayed for beta-glucuronidase activity using a substrate for the enzyme which when cleaved yields either a product which can be measured colorimetrically in a spectrophotometer or fluorescently in a microfluorimeter. Examples of such substrates are p-nitrophenyl-beta-D-glucuronide and methylumbelliferylglucuronide, respectively. The presence of an antiviral compound is indicated by the reduced expression of the HCMV genome resident beta-glucuronidase gene, compared to the absence of inhibitor. […] Data from this assay generated using varying amounts of inhibitor compound is also used to estimate the IC50 of an inhibitor compound.

HSV-1 = assay: HSV antiviral (ELISA) assay in Vero cells; format: cell-based, herpes simplex virus type 1; conditions: Human alphaherpesvirus 1; HSV-1 in Vero cells; read-out: IC50 (ug/ml) HSV
Method: HSV antiviral (ELISA) assay
Vero cells (ATCC #CCL-81) are plated on 96-well tissue culture plates at 3.5x10^4 cells per 100µl tissue culture DMEM (Dulbecco's modified Eagle media) supplemented with 2% fetal bovine serum (FBS) in each well. After overnight incubation @ 37°C (in 5% CO2) and 30 minutes prior to infection with HSV-1 (multiplicity of infection equal to 0.006), cells are either untreated, or treated with test compound (multiple concentrations) or reference standard drug control. After approximately 24 hours post-infection incubation @ 37°C (in 5% CO2), cells are fixed for ELISA assay. The primary antibody is murine anti-HSV glycoprotein D monoclonal primary antibody and the secondary antibody is goat anti-mouse IgG linked to β-galactosidase. Thus the extent of viral replication is determined by assessing β-galactosidase activity by quantifying the generation of the 4-methyl umbelliferone fluorescent cleavage product after addition of the methyl umbelliferyl-β-D-galactoside (Sigma #M1633) substrate on a microfluorimeter (365nm for excitation and 450nm for emission). Antiviral activity (IC50) of the test compound is determined by comparing the flourescence obtained in absence of compound to that obtained in the presence of compound.

VZV strain Ellen = assay: VZV antiviral (ELISA) assay in human foreskin fibroblast cells; format: cell-based, varicella-zoster virus; conditions: for inhibition at 10 µg/mL: Human alphaherpesvirus 3, Fibroblast, read-out: % inhibition 10 ug/ml VZV; for IC50: Human alphaherpesvirus 3, VZV strain Ellen in HFF cells, read-out: IC50 (ug/ml) VZV
Method: VZV antiviral (ELISA) assay
For the generation of stock VZV to be used in the assay, VZV strain Ellen (ATCC #VR-1367) is used to infect human foreskin fibroblast (HFF) cells at low multiplicity (less than 0.1) and incubated overnight at 37°C in 5% CO2. After the overnight incubation, the mixture of uninfected and VZV-infected HFF infected cells are then harvested and added to each well of 96-well plates (3.5x10^4 cells in 100 µl DMEM supplemented with 2% FBS) which contain test compound or the reference standard drug control (in 100µl DMEM supplemented with 2% FBS per well). These cells are incubated for three days at 37°C in 5% CO2, then fixed for ELISA assay. The primary antibody is murine anti-VZV glycoprotein II monoclonal antibody (Applied Biosystems, Inc. #13-145-100) and the secondary antibody is goat anti-mouse IgG linked to β-galactosidase. Thus the extent of viral replication is determined by assessing β-galactosidase activity by quantifying the generation of the 4-methyl umbelliferone fluorescent cleavage product after addition of the methyl umbelliferyl-β-D-galactoside (Sigma #M1633) substrate on a microfluorimeter (365nm for excitation and 450nm for emission). Antiviral activity (IC50) of the test compound is determined by comparing the flourescence obtained in absence of compound to that obtained in the presence of compound.

| Compound | IC50 [1] | IC50 (HSV-1) | inhibition at 10 µg/mL (VZV strain Ellen) | IC50 (VZV strain Ellen) |
| --- | --- | --- | --- | --- |
| COc1cc(OC)c(NC(=S)Nc2ccc(NC(=O)c3ccccc3F)cc2C#N)cc1Cl [Example 381, N-{4-[3-(5-Chloro-2,4-dimethoxy-phenyl)-thioureido]-3-cyano-phenyl}-2-fluoro-benzamide] | > 10 µg/mL | > 10 µg/mL | 13% | > 10 µg/mL |
| COc1cc(OC)c(NC(=S)Nc2ccc(NC(=O)c3ccccc3F)cc2OC)cc1Cl [Example 389, N-{4-[3-(5-Chloro-2,4-dimethoxy-phenyl)-thioureido]-3-methoxy-phenyl}-2-fluoro-benzamide] | 1.5 µg/mL (≈ 3.06 µM) | 0.04 µg/mL (≈ 0.0816 µM) | 9% | > 10 µg/mL |
| COc1cc(C)c(Cl)cc1NC(=S)Nc1ccc(NC(=O)c2ccccc2F)c(C)c1 [Example 394, N-{4-[3-(5-Chloro-2-methoxy-4-methyl-phenyl)-thioureido]-2-methyl-phenyl}-2-fluoro-benzamide] | > 10 µg/mL | 0.2 µg/mL (≈ 0.437 µM) | 36% | > 10 µg/mL |
| CC(=O)Nc1ccc(NC(=S)Nc2ccc(NC(=O)c3ccccc3)c(Cl)c2)cc1 [Example 400, N-{4-[3-(4-Acetylamino-phenyl)-thioureido]-2-chloro-phenyl}-benzamide] | > 10 µg/mL | > 10 µg/mL | 15% | > 10 µg/mL |
| O=C(Nc1ccc(NC(=S)Nc2ccc(NC(=O)c3ccccc3F)cc2)cc1Cl)c1ccccc1 [Example 401, N-{4-[({[4-(Benzoylamino)-3-chloro-phenyl]-amino}-thioxomethyl)-amino]-phenyl}-2-fluoro-benzamide] | 2.5 µg/mL (≈ 4.82 µM) | > 10 µg/mL | 70% | > 15 µg/mL |
| COc1cc(OC)c(NC(=S)Nc2ccc(NC(=O)c3ccccc3F)c(C(F)(F)F)c2)cc1Cl [Example 402, N-{4-[3-(5-Chloro-2,4-dimethoxy-phenyl)-thioureido]-2-trifluoromethyl-phenyl}-2-fluoro-benzamide] | 4 µg/mL (≈ 7.58 µM) | > 10 µg/mL | 13% | > 10 µg/mL |
| CSc1ccc(NC(=S)Nc2ccc(NC(=O)c3ccccc3F)c(C)c2)cc1Cl [Example 408, N-{4-[3-(3-Chloro-4-methylsulfanyl-phenyl)-thioureido]-2-methyl-phenyl}-2-fluoro-benzamide] | 6 µg/mL (≈ 13 µM) | 0.2 µg/mL (≈ 0.435 µM) | 56% | > 10 µg/mL |
| COc1cc(NC(=O)c2ccccc2F)ccc1NC(=S)Nc1cc(Cl)c(C)cc1OC [Example 418, N-{4-[3-(5-Chloro-2-methoxy-4-methyl-phenyl)-thioureido]-3-methoxy-phenyl}-2-fluoro-benzamide] | 3 µg/mL (≈ 6.33 µM) | 0.05 µg/mL (≈ 0.105 µM) | 10% | > 10 µg/mL |
| COc1cc(NC(=O)c2ccccc2F)ccc1NC(=S)Nc1ccc(C)c(Cl)c1 [Example 419, N-{4-[3-(3-Chloro-4-methyl-phenyl)-thioureido]-3-methoxy-phenyl}-2-fluoro-benzamide] | > 10 µg/mL | 0.2 µg/mL (≈ 0.451 µM) | 3% | > 10 µg/mL |
| COc1cc(NC(=O)c2ccccc2F)ccc1NC(=S)Nc1ccc(SC)c(Cl)c1 [Example 420, N-{4-[3-(3-Chloro-4-methylsulfanyl-phenyl)-thioureido]-3-methoxy-phenyl}-2-fluoro-benzamide] | 7 µg/mL (≈ 14.7 µM) | 0.2 µg/mL (≈ 0.42 µM) | 34% | > 10 µg/mL |
| O=C(Nc1ccc(NC(=S)NNc2cccc(Cl)c2)cc1)c1ccccc1F [Example 529, N-[4-({[2-(3-Chloro-phenyl)-hydrazino]-thioxomethyl}-amino)-phenyl]-2-fluoro-benzamide] | 8.5 µg/mL (≈ 20.5 µM) | 1 µg/mL (≈ 2.41 µM) | 23% | 9 µg/mL (≈ 21.7 µM) |
| Cc1c(C)c(NC(=S)NC(C)c2ccc(F)cc2)c(C)c(C)c1NC(=O)c1ccccc1F (centres unmarked) [Example 1023, 2-Fluoro-N-(4-{3-[1-(4-fluoro-phenyl)-ethyl]-thioureido}-2,3,5,6-tetramethyl-phenyl)-benzamide] | 9 µg/mL (≈ 19.2 µM) | > 10 µg/mL |  | 10 µg/mL (≈ 21.4 µM) |
